Data: patent publication US20230303623A1, “PEPTIDES AND METHODS OF USE” (REALTA LIFE SCIENCES, INC., priority 2020, published 2023)
“Also recorded” adds a separate entry of the source.

Legend:
[1] = system: classical complement pathway activation (C1q with C1r and C1s from A-498 cells); test: Classical complement activation by A-498 cell supernatant, C4a ELISA; format: biochemical, human; conditions: increasing doses 0-8 mg/ml; listed as RLS-0122
Procedure: Supernatants from A-498 cells were added to purified human C1q pre-incubated with increasing doses of RLS-0122 or RLS-0174 and loaded onto an IgG coated plate. Samples were then incubated for 1 hour at 37° C. After incubation samples were washed 3 times with PBS-T before the addition of purified human C4 (4 ug/ml) and incubated for 1.5 hours at 37° C. The supernatants were collected for analysis on Quidel's MicroVue Complement C4a ELISA.
Effective clear-cell renal cell carcinoma (ccRCC) therapies are needed, particularly at the metastatic stage when surgery is ineffective. Complement is a key factor in tissue inflammation, favoring cancer progression through the production of complement component 5a (C5a) (Roumenina et al., Cancer Immunol Res; 7(7) July 2019). Using data mining techniques, ccRCC has been identified as a cancer type expressing concomitantly high expression of the components that are part of the classical complement pathway. High densities of cells producing classical complement pathway components C1q and C4 and the presence of C4 activation fragment deposits in primary tumors are often correlated with poor prognosis. […] The inventors tested the ability of RLS-0122 to block complement activation in human kidney carcinoma cell line A498 system in vitro as assessed by the reduction in C4a levels. […]

[2] = system: purified human Pan T-cells; test: T-cell exhaustion protocol (repeated CD3/CD28 Dynabead stimulation); format: cell-based; conditions: ELISA, listed as RLS-0122
Procedure: Purified human pan-T-cells were subject to stimulation with Dynabeads every 48 hours over the period of 8 days with cells also receiving PIC1 peptides (2 mg/ml) at each stimulation. Cells not receiving Dynabeads were run in parallel to assess background levels of Caspase 3/7 signal. At the eighth day, cells were harvested, and the levels of Caspase 3/7 determined by ELISA.
Purified human pan-T-cells were subject to stimulation with Dynabeads every 48 hours over the period of 8 days with cells also receiving PIC1 peptides (2 mg/ml) at each stimulation. Cell supernatants were collected at each stimulation and levels of IL-2 and IFN-gamma assayed by ELISA.
T-cell exhaustion is a form of T-cell dysfunction that occurs in cancer. It is generally defined by poor effector function, reduction in cytokine release (e.g., IL-2, TNF-alpha, IFN-gamma), sustained expression of inhibitory receptors (e.g., PD-1, LAG-3, CD244, CD160) with the progressive loss of effector function due to overstimulation. Exhaustion can prevent optimal control of tumor growth. Exhausted T cells are prevalent in the tumor microenvironment (TME) and can lead to T-cell apoptosis. T-cell exhaustion is reversible and pharmaceutical inhibition of T-cell exhaustion has been considered a promising strategy by many cancer researchers. To ascertain if PIC1 peptides could reverse T-cell exhaustion and increase T cell viability and effector function, a T-cell exhaustion protocol was developed. To induce T-cell exhaustion, purified human Pan T-cells were stimulated with T-Activator CD3/CD28 Dynabeads and cells were washed and re-stimulated every 48 hours. PIC1 peptides were added to the cells after each stimulation with Dynabeads. After three to four stimulations, cells were harvested for readouts which consisted of assessing T-cell apoptosis by measuring Caspase 3/7 levels and production of cytokines IL-2 and IFN-gamma, which are indicative of T-cell functionality. […] To further evaluate if PIC1 peptides could restore T-cell functionality in cells that have undergone the exhaustion protocol, the inventors next assessed production of cytokines IL-2 and IFN-gamma. Supernatants from the cells after each stimulation was collected and the cytokines measured by ELISA. […] The lower level of IFN-gamma signal was consistently seen in this assay.

CTLA-4 = target: T1, CTLA-4 (Homo sapiens, UniProt P16410); test: CTLA-4 Blockade Bioassay (Promega); format: cell-based; parameters: host or cells: Jurkat T cells (CTLA-4 effector cells) co-cultured with aAPC/Raji cells; conditions: increasing concentrations; listed as RLS-0122
T1 sequence (P16410 36-223): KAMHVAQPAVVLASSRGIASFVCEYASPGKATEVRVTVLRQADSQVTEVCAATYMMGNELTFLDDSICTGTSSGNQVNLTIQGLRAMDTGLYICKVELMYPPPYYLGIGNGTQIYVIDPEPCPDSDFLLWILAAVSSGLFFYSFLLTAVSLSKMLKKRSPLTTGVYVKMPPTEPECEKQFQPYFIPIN
Procedure: CTLA-4 effector cells were incubated with aAPC/Raji Cells in the absence or presence of increasing concentrations of anti-CTLA-4 antibody (positive control), RLS-0122, RLS-0150, RLS-0154, RLS-0164 and RLS-0168 and RLS-0088 (negative control). Luminescence was detected in luminometer plate reader. The drop-off in signal with the test peptides at high concentrations is due to cell death as a result of peptide buffer effects on the cells.
To assess if PIC1 peptides could block CTLA-4 inhibitory activity in a cell-based assay, select peptides were screened in the CTLA-4 Blockade Bioassay (Promega). This bioluminescent cell-based assay can be used to measure the potency and stability of molecules targeting CTLA-4 and consists of two genetically engineered cell lines: CTLA-4 effector cells: Jurkat T cells expressing human CTLA-4 and a luciferase reporter driven by a native promoter which responds to TCR/CD28 activation and aAPC/Raji Cells: Raji cells expressing an engineered cell surface protein designed to activate cognate TCRs in an antigen-independent manner and endogenously expressing CTLA-4 ligands CD80 and CD86. When the two cell types are co-cultured, CTLA-4 competes with CD28 for their shared ligands, CD80 and CD86 and thus inhibits CD28 pathway activation and promoter-mediated luminescence. Addition of a molecule that blocks the interaction of CTLA-4 with its ligands CD80 and CD86 results in promoter-mediated luminescence.

[3] = peptides 2 mg/ml, stimulation 2

IAdLILEP(Sar)CCQERAA (IALILEPXCCQERAA; D-Leu; sarcosine; MOD_RES (3)..(3) D-amino acid; MOD_RES (8)..(8) Sarcosine) [PA-0122]
C4a generation, in words [1]: dose-dependently reduced the level of C4a generation; also recorded: can inhibit classical complement pathway activation | Caspase 3/7 levels, in words ([2]; peptides 2 mg/ml at each stimulation, day 8): very low to undetectable levels; also recorded: reduced levels | IFN-gamma levels in cell supernatants, in words [2, 3]: detectable at stimulation 2; also recorded: increased levels | IL-2 levels in cell supernatants, in words [2, 3]: detectable IL-2 at stimulation 2; also recorded: increased levels | inhibition of CTLA-4 mediated cell signaling (increase in luminescence), in words (CTLA-4): showed inhibitory activity; also recorded: able to inhibit CTLA-4 mediated cell signaling
